Patent publication US6653354B2, “NMDA antagonist comprising xenon” (priority 1999, dated 2003)

Key:
[1] = test system: glutamatergic synapses (NMDA receptor slow component, AMPA/KA receptor fast component) of hippocampal neurons; assay: Excitatory (glutamatergic) postsynaptic currents, voltage-clamped autaptic hippocampal neurons; format: cell-based, rat
Procedure: Hippocampal neurons were grown in culture using methods described previously (Segal M M et al, J. Neurophysiol. 1990, 64:1390-1399; Bekkers J M et al, Proc. Natl. Acad. Sci. U.S.A. 1991, 88:7834-7838; Mennerick S et al, J. Neurophysiol. 1995, 73:320-332). Briefly, hippocampi from Sprague Dawley rats (postnatal day 1-3) were dissected, roughly sliced and agitated in a papain-containing solution (20 units ml^−1) for 30 minutes at 37 EC. After washing with enzyme-free solution, the tissue was gently triturated with a fire-polished Pasteur pipette and the cells were plated out at a density of 8-10×10^4 cells ml^−1 and cultured (95% air/5% CO2) at 37° C. Glass coverslips used for culturing the cells were first coated with agarose (0.15% w/v) and then sprayed with a fine mist of poly-D-lysine (PDL) and collagen (0.1 mg ml^−1 PDL and 0.5 mg ml^−1 rat-tail collagen) from a glass micro-atomiser and sterilized by UV exposure. This produced micro-islands of permissive substrate with diameters of between 100 and 1000 μm. At 3-4 days after plating, when the glial cell layer was about 80% confluent, an anti-mitotic agent (cytosine β-D-arabinofuranoside, 5 μM) was added to arrest glial cell proliferation. Neuronal cultures were then allowed to mature for another 4-9 days. We used micro-islands which contained single isolated neurons whose axonal processes and dendritic trees formed multiple self-synapses (autapses). This procedure provided a large population of phenotypically identical monosynaptic connections.
The neurons were voltage-clamped using the whole-cell recording technique (Axopatch 200 amplifier, Axon Instruments, Foster City, Calif.). Electrodes were fabricated from borosilicate glass and typically had resistances of between 3-5 MΩ. Series resistance was compensated by 75-90%. Neurons were voltage-clamped at −60 mV, and synaptic responses were stimulated by a 2 ms depolarising pulse to +20 mV. […] For the synaptic measurements, data were sampled at 50 kHz, filtered at 20 kHz (−3 dB, 8-pole Bessel) and stored on a computer. The extracellular recording solution was (mM) 137 NaCl, 5 KCl, 3 CaCl2, 5 HEPES, 10 glucose, 0.001 glycine, 0.0001 strychnine-HCl, titrated to pH 7.3 with NaOH; and the intracellular (pipette) solution was (mM) 140 KCl, 4 NaCl, 0.5 EGTA, 2 MgATP, 10 HEPES, titrated to pH 7.25 with KOH.
Xenon solutions were prepared by first bubbling pure gases (oxygen, nitrogen or xenon) through fine sintered-glass bubblers in 250- or 500-ml Drechsel bottles filled with extracellular recording saline. […] (To minimise oxidization, the neurotoxins and neurotransmitters were excluded from the fully oxygenated saline.) During bubbling, the solutions were continually stirred at room temperature. These solutions were then mixed to achieve the desired final concentrations of the gases. Our control solutions usually contained 80% of the nitrogen solution and 20% of the oxygen solution, while our test solutions usually contained 80% of the xenon solution and 20% of the oxygen solution. Using a Bunsen water/gas partition coefficient of 0.0965 (Smith R A et al, Biochim. Biophys. Acta 1981, 645:327-338) we calculate that our standard test solution contained 3.4 mM xenon. Xenon (research grade, 99.993% pure) was supplied by BOC gases, Guildford, Surrey, UK. In all cases xenon was pre-applied to the neurons for at least 30 seconds before the initiation of synaptic currents.
In order to obtain an estimate for the total charge transfer, the EPSCs or IPSCs were numerically integrated.

[2] = test system: c Fos expression in arcuate nucleus of hypothalamus; assay: c Fos expression in arcuate nucleus after NMA (inhibition of synaptic plasticity in vivo); parameters: species or system Sprague Dawley female adult rats; conditions: MK801 0.5 mg/kg s.c. + NMA 100 mg/kg s.c.
From the text: With exposure to NMA neuronal activation is enhanced (E vs A) which is indicative of synaptic plasticity. In the presence of both Xenon (D) and MK 801 (B), synaptic plasticity induced by NMA is inhibited. […] This is sometimes referred to as long term potentiation, an example of synaptic plasticity. […] The attenuation of c Fos expression is a reflection of the inhibition of synaptic plasticity.

[3] = test system: neurons of arcuate nucleus of hypothalamus; assay: NMA-induced neuron injury in the arcuate nucleus (neuroprotection in vivo); parameters: species or system Sprague Dawley female adult rats; conditions: MK801 0.5 mg/kg s.c. + NMA 100 mg/kg s.c.
Procedure: It can be seen that NMA caused neuronal degeneration and vacuoulated swelling in the neuropil giving a spongiform appearance in the arcuate nucleus (E). The degenerated neuron has a pyknotic nucleus, which look like “bulls' eyes” because of oedematous swelling of the cytoplasmic compartment.
Rats were injected with NMA (100 mg/kg) sc and sacrificed 4 hours later after exposure to air (“NMA”; n=7) or xenon 75% (“75% xenon+NMA”; n=8). (For comparison the effect of MK801, the NMDA antagonist, is also shown). The arcuate nucleus was removed and sectioned and stained with cresyl violet. Control animals (“PS”; n=6) had neither NMA nor xenon administered. Data are reflected as either the mean of three sections/animal (upper) or the sum (lower) of degenerated neurons in both arcuate nuclei.

NMDA receptors = format: cell-based, rat; conditions: neurons clamped at −60 mV
[4] = test system: adenylyl cyclase (AC) / alpha-2 adrenergic receptors; assay: Adenylyl cyclase activity in neuroblastoma X glioma hybrid cell line (synaptic plasticity paradigm); format: cell-based
From the text: Perturbation of function in the central nervous system can be produced by a change in the strength of neural connections, which is referred to as synaptic plasticity. The present inventors have used the neuroblastoma X glioma hybrid cell line to examine the effect of xenon on synaptic plasticity. In this paradigm the alpha-2 adrenergic receptors, which are pivotally involved in synaptic transmission, inhibit adenylyl cyclase (AC).
To examine the inhibitory effect of alpha-2 adrenergic receptors on AC it is first necessary to stimulate the endogenous AC with Prostaglandin E1 (PGE1).
To induce “synaptic plasticity” cells are pretreated for 8 hours with norepinephrine; after preparing homogenates from thoroughly washed cells, re-applied norepinephrine loses its inhibitory effect on PGE1-stimulated AC activity.

[5] = excitatory currents + 200 μM AP5

NC(CCCP(=O)(O)O)C(=O)O (racemic) [AP5, DL-2-amino-5-phosphononpentanoate, reference compound]
reduction in total charge transfer ([1]; 200 μM AP5): 75% | Decay half-time % change (means ± SEM) [1, 5]: −24.1 ± 3.3% | Ifast % change (means ± SEM) [1, 5]: 6.8 ± 6.2% | Ipeak % change (means ± SEM) [1, 5]: −16.3 ± 2.1% | Islow % change (means ± SEM) [1, 5]: −98.8 ± 0.8% | Qfast % change (means ± SEM) [1, 5]: 5.3 ± 9.6% | Qslow % change (means ± SEM) [1, 5]: −96.0 ± 3.4% | Total charge transfer % change (means ± SEM) [1, 5]: −75.2 ± 2.5% | τfast % change (means ± SEM) [1, 5]: −5.9 ± 2.3%

C[C@]12N[C@H](Cc3ccccc31)c1ccccc12 [MK801, reference compound]
synaptic plasticity induced by NMA (c Fos expression) [2]: is inhibited | NMA-induced neuronal injury (cresyl fast violet histology) [3]: prevented NMA-induced injury

CN[C@H](CC(=O)O)C(=O)O [NMDA, N-methyl-D-aspartate]
Hill coefficient (NMDA receptors): 1.2±0.1 | EC50 (NMDA receptors; read-out: EC50 for activation of inward current): 24 ± 2 µM

CCCCC[C@H](O)/C=C/[C@H]1[C@H](O)CC(=O)[C@@H]1CCCCCCC(=O)O [PGE1, Prostaglandin E1]
effect on adenylyl cyclase (AC) activity ([4]; increasing doses of PGE1): dose-dependently stimulates

NC[C@H](O)c1ccc(O)c(O)c1 [norepinephrine]
effect on PGE1-stimulated AC activity ([4]; norepinephrine coadministered with PGE1): dose-dependently inhibited
